From ChEMBL document CHEMBL1806438, “Thrombin inhibitors with lipid peroxidation and lipoxygenase inhibitory activities” (Bioorg Med Chem Lett, 2011)

Experiments:
[1] = (§1) Inhibition of soybean lipoxygenase by UV absorbance based assay; parameters: species or system Glycine max
[2] = Antioxidant activity against AAPH-induced linoleic acid peroxidation by UV spectrophotometry analysis; type: functional
[3] = tested on: Radical scavenging activity; test: Antioxidant activity assessed as DPPH radical scavenging activity at 50 uM after 60 mins; type: functional
[4] = tested on: Radical scavenging activity; test: Antioxidant activity assessed as DPPH radical scavenging activity at 10 uM after 20 mins; type: functional
[5] = tested on: Radical scavenging activity; test: Antioxidant activity assessed as DPPH radical scavenging activity at 50 uM after 20 mins; type: functional
[6] = tested on: Glycine max; test: as §1
[7] = target: Prothrombin (Homo sapiens, UniProt P00734); test: Inhibition of thrombin using S-2238 as substrate after 15 mins by spectrophotometric analysis
[8] = tested on: Radical scavenging activity; test: Antioxidant activity assessed as DPPH radical scavenging activity at 10 uM after 60 mins; type: functional
[9] = Antioxidant activity against AAPH-induced linoleic acid peroxidation at 100 uM by UV spectrophotometry analysis; type: functional

| SMILES | IC50 [1] [µM] | IC50 [2] [µM] | inhibition [6] [%] | Ki [7] [µM] | Activity [3] [%] | Activity [4] [%] | Activity [5] [%] | Activity [8] [%] | inhibition [9] [%] |
| --- | --- | --- | --- | --- | --- | --- | --- | --- | --- |
| O=C(O)/C=C/c1ccc(O)c(O)c1 [CAFFEIC ACID] | 600 | – | – | – | – | – | – | – | – |
| CCOC(=O)CN(Cc1ccc(F)c(F)c1)c1ccc2c(c1)OC(C)(COc1ccc(C(=N)N)cc1)CN2C (configuration not stated) | – | 70 | > 0 | 0.43 | 81 | 84 | 70 | 90 | – |
| CC(Cc1ccc(O)c(O)c1)C(C)Cc1ccc(O)c(O)c1 (configuration not stated) | – | – | – | – | 81 | 83 | 68 | 83 | – |
| CCOC(=O)CN(Cc1ccc(F)cc1)c1ccc2c(c1)N(C)CC(C)(COc1ccc(C(=N)N)cc1)O2 (configuration not stated) | 73 | 77 | – | 0.69 | 14 | 11 | 11 | 24 | – |
| CCOC(=O)CN(Cc1ccc(F)cc1)c1ccc2c(c1)OC(C)(COc1ccc(C(=N)N)cc1)CN2C (configuration not stated) | – | 94.5 | > 0 | 0.31 | 70 | 88 | 62 | 93 | – |
| CCOC(=O)C(=O)N(Cc1cccc(F)c1)c1ccc2c(c1)N(C)CC(C)(COc1ccc(C(=N)N)cc1)O2 (configuration not stated) | – | 90 | > 0 | – | 14 | 12 | 11 | 24 | – |
| Cc1c(C)c2c(c(C)c1O)CCC(C)(C(=O)O)O2 (configuration not stated) | – | – | – | – | – | – | – | – | 63 |
| CCOC(=O)CN(Cc1cc(F)cc(F)c1)c1ccc2c(c1)OC(C)(COc1ccc(C(=N)N)cc1)CN2C (configuration not stated) | – | 69 | > 0 | 0.48 | 68 | 75 | 54 | 86 | – |
| CCOC(=O)CN(Cc1cccc(F)c1)c1ccc2c(c1)OC(C)(COc1ccc(C(=N)N)cc1)CN2C (configuration not stated) | – | 81 | > 0 | 0.35 | 63 | 71 | 48 | 85 | – |

Continued by falling IC50 [2], values first:

| IC50 [1] [µM] | IC50 [2] [µM] | inhibition [6] [%] | Ki [7] [µM] | SMILES | Activity [3] [%] | Activity [4] [%] | Activity [5] [%] | Activity [8] [%] | inhibition [9] [%] |
| --- | --- | --- | --- | --- | --- | --- | --- | --- | --- |
| 99 | 69 | – | – | CCOC(=O)C(=O)N(Cc1cc(F)cc(F)c1)c1ccc2c(c1)N(C)CC(C)(COc1ccc(C(=N)N)cc1)O2 (configuration not stated) | 28 | 25 | 23 | 36 | – |
| – | 68 | > 0 | 0.66 | CCOC(=O)CN(Cc1ccc(F)c(F)c1)c1ccc2c(c1)N(C)CC(C)(COc1ccc(C(=N)N)cc1)O2 (configuration not stated) | 16 | 8 | 11 | 21 | – |
| – | 61.5 | > 0 | 0.37 | CCOC(=O)C(=O)N(Cc1ccc(F)c(F)c1)c1ccc2c(c1)N(C)CC(C)(COc1ccc(C(=N)N)cc1)O2 (configuration not stated) | 28 | 35 | 23 | 46 | – |
| – | 59 | 9.7 | 0.9 | CCOC(=O)CN(Cc1cccc(F)c1)c1ccc2c(c1)N(C)CC(C)(COc1ccc(C(=N)N)cc1)O2 (configuration not stated) | 14 | 10 | 11 | 23 | – |
| – | 51 | > 0 | – | CCOC(=O)C(=O)N(Cc1ccc(F)cc1)c1ccc2c(c1)N(C)CC(C)(COc1ccc(C(=N)N)cc1)O2 (configuration not stated) | 12 | 10 | 10 | 21 | – |
| – | 36 | 41.7 | 0.95 | CCOC(=O)CN(Cc1cc(F)cc(F)c1)c1ccc2c(c1)N(C)CC(C)(COc1ccc(C(=N)N)cc1)O2 (configuration not stated) | 10 | 8 | 8 | 18 | – |
